The values below come from US20110224079A1, “SPIROHETEROCYCLIC N-OXYAMIDES AS PESTICIDES” (SYNGENTA CROP PROTECTION LLC, priority 2008, published 2011).

Series [1] relates to pepper plants. The conditions noted are these: in vivo. Here is the method:
(§1) Comparison of the Insecticidal Activity and Crop Compatibility of Compounds According to the Invention with a Compound from the State of the Art (Compound No. A18 Described on Page 97 of WO09/049,851)
(§2) (Mixed Population, Drench Application in Field Soil, Persistence, Plant Damage Evaluation)
(§3) Samples are assessed 7 days after infestation on mortality. Treated plants are re-infested 7, 14, 21 and 28 days after application. Evaluation is always done 7 days after infestation. Plants are also checked for damage (phytotoxicity), visual assessment being made using a 0-100% rating scale (100%=total damage to plant; 0%=no damage to plant).

The subject of series [2] is Myzus persicae (green peach aphid). Put plainly: Example B15: drench activity (death rate, persistence) against Myzus persicae on pepper plants in field soil, comparison with A18. The following applies: for Mortality (%) xx days after application (drench, systemic action, persistence): 12.5 ppm drench, pepper plants in field soil, evaluation 7 days after infestation; for insecticidal action on Myzus persicae compared with state-of-the-art compound A18 (in words): drench application on pepper plants, summary of Table B15. It counts as in vivo. Here is the method: as §1, §2, §3

The subject of series [3] is Nilaparvata lugens (brown rice planthopper). The experiment in a line: Example B8: activity against Nilaparvata lugens, sprayed rice seedlings (larvicide, feeding/contact). The following applies: in Oryza sativa, read-out: activity (mortality, growth regulation, effects on F1 generation).
Series [4] has as its system Myzus persicae (green peach aphid). Put plainly: Example B13: drench activity against Myzus persicae, pea seedlings in field soil. The conditions noted are these: 168 h, read-out: drench activity (mortality).
For series [5] the test system is unchanged. The experiment in a line: Example B2: activity against Myzus persicae, pea seedling roots in test solution (systemic/feeding, curative). The conditions noted are these: 144 h, read-out: activity (mortality).
Series [6] has the same test system. The experiment in a line: Example B1: activity against Myzus persicae, sprayed sunflower leaf discs (feeding/residual contact, preventive). The following applies: foliar, 144 h, read-out: activity (mortality).
For series [7], the system named is Plutella xylostella (diamond back moth). The experiment in a line: Example B5: activity against Plutella xylostella, artificial diet in microtiter plate (larvicide, preventive). It counts as in vivo. The following applies: 120 h, L2 larvae, 5 days, read-out: activity (larval mortality, antifeedant, growth regulation). The protocol:
Activity Against Plutella xylostella (Diamond Back Moth)
(Larvicide, Feeding/Residual Contact Activity, Preventive)
24-well microtiter plate (MTP) with artificial diet is treated with test solutions by pipetting. After drying, the MTP's are infested with larvae (L2)(10-15 per well). After an incubation period of 5 days, samples are checked for larval mortality, antifeedant and growth regulation.

For series [8], the system named is Aphis Craccivora (cowpea aphid). The experiment in a line: Example B11: translaminar activity against Aphis craccivora on French bean leaves. In kind it is in vivo. The conditions noted are these: 120 h, upper leaf side painted, aphids on lower side, 5 days. Here is the method: Translaminar Activity Against Aphis Craccivora (Cowpea Aphid)
French bean leaves (Phaseolus vulgaris) are infested with about 20 mixed age individuals on the lower leaf side using clip cages. 1 day after the infestation, the upper side of the leaves is treated with the test solution by painting. 5 days later, samples are checked for mortality.

For series [9], the system named is Aonidiella Aurantii (red scale). The experiment in a line: Example B12: activity against Aonidiella aurantii, dipped potato tubers. In kind it is in vivo. The following applies: 6-8 weeks after application, read-out: activity (number of crawlers of the next generation). From the text:
Activity Against Aonidiella Aurantii (Red Scale)
Treatment of potato tubers by dipping the in the test solution. One day later, tubers are infested with about 50 crawlers. 6-8 weeks after application samples are checked for the number of crawlers of the next generation (compared to the non treated samples).

Series [10] deals with Bemisia tabaci (tobacco white fly). The experiment in a line: Example B7: activity against Bemisia tabaci, sprayed bean plants (larvicide, contact/feeding). It counts as in vivo. The conditions noted are these: 504 h, bean plants with N-2 nymphs sprayed, three weeks, read-out: activity (efficacy, number of emerged adults). An outline of the steps:
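After a 4-day egg-laying period and 7 further days, bean plants bearing hatched N-2 nymphs were sprayed with test solutions (2 replicates). Emerged adults were counted three weeks later; efficacy was derived by comparison with untreated samples.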

Series [11] has as its system Myzus persicae (green peach aphid). The experiment in a line: Example B17: activity against Myzus persicae on sprayed pepper plants (feeding/residual contact). It counts as in vivo. The following applies: 144 h, infested pepper plants sprayed, 6 days.
For series [12], the system named is Aphis Craccivora (cowpea aphid). Put plainly: Example B9: activity against Aphis craccivora, sprayed pea seedlings (contact/feeding). In kind it is in vivo. The conditions noted are these: 144 h, infested pea seedlings sprayed, 6 days. An excerpt: (§4) Activity Against Aphis Craccivora (Cowpea Aphid)
(Mixed Population, Contact/Feeding)
6 days after treatment, samples are checked for mortality.

Series [13] concerns Thrips tabaci (onion thrips). The experiment in a line: Example B3: activity against Thrips tabaci, sprayed sunflower leaf discs (feeding/residual contact, preventive). In kind it is in vivo. The following applies: foliar, 144 h, mixed population, 6 days. From the text: Activity Against Thrips tabaci (Onion Thrips)
(Mixed Population, Feeding/Residual Contact Activity, Preventive)

For series [14], the system named is Aphis Craccivora (cowpea aphid). The experiment in a line: Example B10: activity against Aphis craccivora, pea seedling roots in test solution (systemic/feeding). In kind it is in vivo. The following applies: 144 h, roots of infested pea seedlings in test solution, 6 days.
Description: as §4
(Mixed Population, Systemic/Feeding)

Series [15] relates to Tetranychus urticae (two-spotted spider mite). The experiment in a line: Example B4: activity against Tetranychus urticae, sprayed bean leaf discs (feeding/residual contact, preventive). The conditions noted are these: foliar, 192 h, read-out: activity (egg, larval and adult mortality).
In series [16] the test system is Aphis Craccivora (cowpea aphid). Put plainly: Example B16: activity against Aphis craccivora on broad bean plants, adjuvant effect, curative (EC050 spray). The conditions noted are these: 3 ppm, adjuvant (if any) 0.1% (v/v), 7 days after treatment. In kind it is in vivo. The protocol: One day after infestation, plants are treated with diluted test solutions of the compound formulated as EC050 in a spray chamber (4 replicates). Optionally, an adjuvant is added with 0.1% (v/v) to the spray solution. 7 days after treatment samples are checked for mortality. Efficacy was calculated with the aid of Abbott's formula.

Series [17] has as its system Frankliniella occidentalis (western flower thrips). The experiment in a line: Example B6: activity against Frankliniella occidentalis, bean leaf discs or bean plants. In kind it is in vivo. The following applies: foliar, 6 days (leaf discs) or 14 days (plants) after infestation, read-out: activity (reduction of treated population). Put shortly:
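Bean leaf discs on agar or whole bean plants sprayed with diluted test solutions, then infested with a mixed thrips population after drying. Population reduction versus untreated assessed 6 days (discs) or 14 days (plants) after infestation.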

[18] abbreviates: infestation 0 days after application.
[19] abbreviates: re-infestation 7 days after application.
The mark [20] stands for this setting: re-infestation 14 days after application.
[21] abbreviates: re-infestation 21 days after application.
The mark [22] stands for this setting: re-infestation 28 days after application.

As to `CCOC(=O)OC1=C(c2c(C)cc(C)cc2C)C(=O)NC12CCN(OC)CC2` [A18, reference compound], the “plant damage on pepper plants / plant compatibility (in words)” value in [1] is on record as “damages these to an untolerable high extend”. The “Mortality (%) xx days after application (drench, systemic action, persistence)” value (from here on “Mortality (%) xx days after application”) in series [2] (setting [18]) was found to be 100%; in [2] (setting [19]), 100%; in series [2] (setting [20]) it was 98%; in series [2] (setting [21]), 95%; in series [2] (setting [22]), 95%.
In the case of `CCOC(=O)OC1=C(c2c(C)cc(C)cc2C)C(=O)N(OCOC)C12CCN(OC)CC2` [P1.7, carbonic acid ethyl ester 8-methoxy-1-methoxymethoxy-2-oxo-3-(2,4,6-trimethyl-phenyl)-1,8-diaza-spiro[4.5]dec-3-en-4-yl ester], in series [1], the “plant damage on pepper plants / plant compatibility (in words)” value was “no plant damage at all”. The “Mortality (%) xx days after application” value in series [2] (setting [18]) came out at 99%; in [2] (setting [19]), 100%; in series [2] (setting [20]), 98%; in series [2] (setting [21]), 98%; in series [2] (setting [22]), 97%. The “insecticidal action on Myzus persicae compared with state-of-the-art compound A18 (in words)” value in series [2] is “very similar to the action of the compound of the state of the art”. The mortality at 400 ppm in series [3], in series [5], in series [6], in series [7] and in series [8] was > 80% throughout. Further, in series [4], the mortality at 25 ppm is > 80%. In addition, the pest or weed control at 200 ppm in series [9] and in [10] was > 80% in each case. Moreover, the mortality at 200 ppm in series [11] is ≥ 80%.
For `CCOC(=O)OC1=C(c2c(C)cc(C)cc2C)C(=O)N(OC)C12CCN(OC)CC2` [P1.8], the mortality at 400 ppm in series [12], in series [3], in [13], in [5], in [6] and in series [14] was > 80% in each case. The mortality at 400 ppm in series [7], in series [8] and in series [15] was > 80% throughout. Further, the mortality at 25 ppm in series [4] was > 80%. The pest or weed control at 200 ppm in series [9] and in [10] was > 80% each time. Further, in series [11], the mortality at 200 ppm was ≥ 80%.
`CCOC(=O)OC1=C(c2c(C)cc(C)cc2C)C(=O)N(O)C12CCN(OC)CC2` [P1.11, carbonic acid ethyl ester 1-hydroxy-8-methoxy-2-oxo-3-(2,4,6-trimethyl-phenyl)-1,8-diaza-spiro[4.5]dec-3-en-4-yl ester]: in [1], the “plant damage on pepper plants / plant compatibility (in words)” value was “no plant damage at all”. Also, the “Mortality (%) xx days after application” value is listed as 97% in series [2] (setting [18]); 95% in series [2] (setting [19]); 95% in series [2] (setting [20]); 100% in series [2] (setting [21]); 100% in series [2] (setting [22]). Also, the “insecticidal action on Myzus persicae compared with state-of-the-art compound A18 (in words)” value in series [2] was “very similar to the action of the compound of the state of the art”. The mortality at 400 ppm in [3], in series [13], in series [5], in series [6], in series [14] and in [7] was > 80% each time. The mortality at 400 ppm in series [15] is > 80%. In addition, the mortality at 25 ppm in series [4] was > 80%. In addition, the pest or weed control at 200 ppm in series [9] and in series [10] was > 80% throughout. For the same compound, the mortality at 200 ppm in [11] was ≥ 80%.
Turning to `CCOC(=O)OC1=C(c2c(C)cc(C)cc2C)C(=O)N(OCC)C12CCN(OC)CC2` [P1.15], the mortality at 400 ppm in series [12], in [3], in series [5], in series [6], in series [14] and in series [8] was > 80% each time. Also, the mortality at 400 ppm in series [15] is > 80%. The mortality at 25 ppm in [4] is > 80%. For the same compound, the pest or weed control at 200 ppm in series [9] and in series [10] was > 80% each time. For the same compound, the “Abbott's efficacy (%) against Aphis craccivora” value in series [16] (Table B16a) stood at 3%; in [16] (Table B16b) it was 11%. The pest or weed control at 400 ppm in [17] was > 80%. In [11], the mortality at 200 ppm is ≥ 80%.
Take `COCON1C(=O)C(c2c(C)cc(C)cc2C)=C(O)C12CCN(OC)CC2` [P2.6, 4-hydroxy-8-methoxy-1-methoxymethoxy-3-(2,4,6-trimethyl-phenyl)-1,8-diaza-spiro[4.5]dec-3-en-2-one]: the mortality at 400 ppm in series [12], in [3], in series [13], in [5], in series [6] and in series [14] was > 80% throughout. Besides, the mortality at 400 ppm in series [7] and in series [8] was > 80% each time. Moreover, in series [4], the mortality at 25 ppm was > 80%. The pest or weed control at 200 ppm in series [9] and in [10] was > 80% in each case. Also, the pest or weed control at 400 ppm in series [17] was > 80%. Moreover, in series [11], the mortality at 200 ppm is ≥ 80%.
